Legend:
[1] = Blood level screening after oral dose; assay type: in vivo, Sprague-Dawley rats; conditions: rat, oral gavage 10 mg/kg; for concentration at 1 h / concentration at 3 h / concentration at 6 h: male, Sprague-Dawley, plasma; for concentration at 1 h: read-out: Plasma Levels (μM) 1 hr; for concentration at 3 h: read-out: Plasma Levels (μM) 3 hr; for concentration at 6 h: read-out: Plasma Levels (μM) 6 hr
Method in brief: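 Unfasted male Sprague-Dawley rats received 10 mg/kg by oral gavage in PEG, PEG-400 or PEG:H2O:EtOH. Plasma was solvent-extracted and the inhibitor measured by HPLC or LC/MS.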

[2] = target: T1, human neutrophil elastase (HNE) (Homo sapiens, UniProt P08246); assay: HNE Ki of CE compounds, tested as described in WO 96/16080; assay type: biochemical; conditions: read-out: HNE Ki
T1 sequence (P08246 30-267): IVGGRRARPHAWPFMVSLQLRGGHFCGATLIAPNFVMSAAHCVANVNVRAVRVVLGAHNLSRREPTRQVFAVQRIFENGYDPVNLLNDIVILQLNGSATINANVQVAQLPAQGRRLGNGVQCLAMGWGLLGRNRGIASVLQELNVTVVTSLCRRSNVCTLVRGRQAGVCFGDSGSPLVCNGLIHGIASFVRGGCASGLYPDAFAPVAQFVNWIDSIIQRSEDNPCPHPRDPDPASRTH

[3] = system: polymorphoneucleocyte (PMN); assay: Extracellular Matrix (ECM) degradation assay; assay type: cell-based; conditions: PMN's stimulated with opsonized zymosan, 4 hr at 37° C.; for inhibition at 1 µM / ECM DATA % Inhibition 1 uM: 1 uM inhibitor; for inhibition at 5 µM / ECM DATA % Inhibition 5 uM: 5 uM inhibitor
Method in brief: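 Radiolabelled ([35S]sulfate/[3H]proline) ECM from R22 rat smooth muscle cells preincubated 30 min with 1 or 5 uM inhibitor in HBSS (<2% DMSO). PMNs (5×10^5/well) stimulated with serum-opsonized zymosan (10 particles/PMN), 4 h at 37 °C. Degradation = released over total ECM counts, minus PMN-free basal release.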

| Structure (SMILES) | concentration at 1 h [1] [µM] | concentration at 3 h [1] [µM] | concentration at 6 h [1] [µM] | Ki [2] [nM] | Plasma Levels (μM) 1 hr [1] [µM] | Plasma Levels (μM) 3 hr [1] [µM] | Plasma Levels (μM) 6 hr [1] [µM] | inhibition at 1 µM [3] [%] | inhibition at 5 µM [3] [%] | ECM DATA % Inhibition 1 uM [3] [%] | ECM DATA % Inhibition 5 uM [3] [%] |
| --- | --- | --- | --- | --- | --- | --- | --- | --- | --- | --- | --- |
| Cc1cccc(Cc2nnc(C(=O)[C@@H](NC(=O)CN3C(=O)CN=C(C4CCNCC4)c4ccccc43)C(C)C)o2)c1 [CE2233, 2-Oxo-5-(4-piperidinyl)-1,4-benzodiazepine-N-[1-(2-[5-(3-methylbenzyl)-1,3,4-oxadiazolyl]carbonyl)-2-(S)-methylpropyl]acetamide] | 0.07 | 0.065 | 0.036 | 41.6 | – | – | – | 54.7 | 55.4 | – | – |
| Cc1cccc(Cc2nnc(C(=O)[C@@H](NC(=O)CN3C(=O)N[C@H](CC(=O)N(C)C)C3=O)C(C)C)o2)c1 [CE2247, 4-(R)-(2-N,N-Dimethylcarboxamido)-2,5-imidazolidinedione-N-[1-(2-[5-(3-methylbenzyl)-1,3,4-oxadiazolyl]carbonyl)-2-(S)-methylpropyl]acetamide] | – | – | – | 62.4 | 1.017 | 0.572 | 0.186 | – | – | 13.3 | 21.2 |
| Cc1cccc(Cc2nnc(C(=O)[C@@H](NC(=O)CN3C(=O)N[C@@H](C(C)C)C3=O)C(C)C)o2)c1 [CE2240, 4-(S)-(2-Isopropyl)-2,5-imidazolidinedione-N-[1-(2-[5-(3-methylbenzyl)-1,3,4-oxadiazolyl]carbonyl)-2-(S)-methylpropyl]acetamide] | – | – | – | 30 | 1.12 | 0.5 | 0.29 | – | – | 16.8 | 13.5 |
| Cc1cccc(Cc2nnc(C(=O)C(NC(=O)CN3C(=O)C(N)N=C(c4ccc(Cl)cc4)c4ccccc43)C(C)C)o2)c1 [CE2224, (R,S)-3-Amino-2-oxo-5-(4-chlorophenyl)-1,4-benzodiazepine-N-[1-(2-[5-(3-methylbenzyl)-1,3,4-oxadiazolyl]carbonyl)-2-(R,S)-methylpropyl]acetamide] | 1.84 | 1.94 | 1.96 | 1 | – | – | – | 43.2 | 66.8 | – | – |
| Cc1cccc(Cc2nnc(C(=O)C(NC(=O)CN3C(=O)C(N)N=C(c4ccccc4)c4ccccc43)C(C)C)o2)c1 [CE2134, (R,S)-3-Amino-2-oxo-5-phenyl-1,4,-benzodiazepine-N-[1-(2-[5-(3-methylbenzyl)-1,3,4-oxadiazolyl]carbonyl)-2-(S)-methylpropyl]acetamide] | – | 5.02 | – | 2 | – | – | – | 21.7 | 25.7 | – | – |
| Cc1cccc(Cc2nnc(C(=O)[C@@H](NC(=O)CN3C(=O)CNC3=O)C(C)C)o2)c1 [CE2238, 2,5-Imidazolidinedione-N-[1-(2-[5-(3-methylbenzyl)-1,3,4-oxadiazolyl]carbonyl)-2-(S)-methylpropyl]acetamide] | 2.57 | 1.74 | 1.03 | 162 | – | – | – | 10.1 | 18.8 | – | – |
| Cc1cccc(Cc2nnc(C(=O)[C@@H](NC(=O)CN3C(=O)CN=C(c4ccc5c(c4)OCO5)c4ccccc43)C(C)C)o2)c1 [CE2248] | – | – | – | 3.1 | 1.65 | 1.58 | 1.22 | – | – | 39.4 | 63.2 |
| Cc1cccc(Cc2nnc(C(=O)[C@@H](NC(=O)CN3C(=O)CN=C(c4ccc(C(F)(F)F)cc4)c4ccccc43)C(C)C)o2)c1 [CE2237, 2-Oxo-5-(4-trifluoromethylphenyl)-1,4 benzodiazepine-N-[1-(2-[5-(3-methylbenzyl)-1,3,4-oxadiazolyl]carbonyl)-2-(S)-methylpropyl]acetamide] | 1.02 | 1.8 | 0.84 | 3 | – | – | – | 34.6 | 42.6 | – | – |
| Cc1cccc(Cc2nnc(C(=O)C(NC(=O)CN3C(=O)C(NC(=O)OCc4ccccc4)N=C(c4ccccc4Cl)c4cc(Cl)ccc43)C(C)C)o2)c1 [CE2230, (R,S)-3-Benzyloxycarbonylamino-2-oxo-5-(2-chlorophenyl)-1,4-(2′-chlorobenzodiazepine)-N-[1-(2-[5-(3-methylbenzyl)-1,3,4-oxadiazolyl]carbonyl)-2-(R,S)-methylpropyl]acetamide] | – | – | – | 2.6 | – | 0 | – | – | – | 37.7 | 37.8 |

Further lines, with some results ahead:

| concentration at 1 h [1] [µM] | concentration at 3 h [1] [µM] | concentration at 6 h [1] [µM] | Ki [2] [nM] | Plasma Levels (μM) 1 hr [1] [µM] | Plasma Levels (μM) 3 hr [1] [µM] | Plasma Levels (μM) 6 hr [1] [µM] | Structure (SMILES) | inhibition at 1 µM [3] [%] | inhibition at 5 µM [3] [%] | ECM DATA % Inhibition 1 uM [3] [%] | ECM DATA % Inhibition 5 uM [3] [%] |
| --- | --- | --- | --- | --- | --- | --- | --- | --- | --- | --- | --- |
| – | – | – | 14 | 0.598 | 0.289 | 0.078 | Cc1cccc(Cc2nnc(C(=O)[C@@H](NC(=O)CN3C(=O)NC4(CCCCC4)C3=O)C(C)C)o2)c1 [CE2241, 4-Spirocyclohexane-2,5-imidazolidinedione-N-[1-(2-[5-(3-methylbenzyl)-1,3,4-oxadiazolyl]carbonyl)-2-(S)-methylpropyl]acetamide] | – | – | 18.6 | 31.7 |
| – | – | – | 2.4 | 1.11 | 0.553 | – | Cc1cccc(Cc2nnc(C(=O)[C@@H](NC(=O)CN3C(=O)NC(c4ccc(N(C)C)cc4)C3=O)C(C)C)o2)c1 (some centres unmarked) [CE2194] | – | – | 41 | 58.7 |
| – | 0.316 | – | 0.75 | – | – | – | Cc1cccc(Cc2nnc(C(=O)[C@@H](NC(=O)[C@@H]3CCCN3C(=O)[C@@H](NS(C)(=O)=O)C(C)C)C(C)C)o2)c1 [CE2163, Methylsulfonyl-L-valyl-N-[1-(2-[5-(3-methylbenzyl)-1,3,4-oxadiazolyl]carbonyl)-2-(S)-methylpropyl]-L-prolinamide] | 54.7 | 64 | – | – |
| – | – | – | 16 | 0.9 | 0.33 | 0.2 | CC(C)[C@H](NC(=O)CN1C(=O)N[C@H](Cc2ccc(O)cc2)C1=O)C(=O)c1nnc(Cc2ccc3c(c2)OCO3)o1 [CE2256, 4-(R)-(4-Hydroxybenzyl)-2,5-imidazolidinedione-N-[1-(2-[5-(3,4-methylenedioxybenzyl)-1,3,4-oxadiazolyl]carbonyl)-2-(S)-methylpropyl]acetamide] | – | – | 24 | 47.8 |
| – | – | – | 1.9 | 0.114 | 0.188 | 0.1 | Cc1cccc(Cc2nnc(C(=O)[C@@H](NC(=O)CN3C(=O)NC(c4ccccc4)(c4ccccc4)C3=O)C(C)C)o2)c1 [CE2252, 4,4-Diphenyl-2,5-imidazolidinedione-N-[1-(2-[5-(3-methylbenzyl)-1,3,4-oxadiazolyl]carbonyl)-2-(S)-methylpropyl]acetamide] | – | – | 45.4 | 65.2 |
| – | 0.185 | – | 0.29 | – | – | – | CC(C)[C@H](NC(=O)[C@@H]1CCCN1C(=O)[C@@H](NC(=O)OCc1ccccc1)C(C)C)C(=O)c1noc(Cc2ccc3c(c2)OCO3)n1 [CE2178, (Benzyloxycarbonyl)-L-valyl-N-[1-(3-[5-(3,4-methylenedioxybenzyl)-1,2,4-oxadiazolyl]carbonyl)-2-(S)-methylpropyl]-L-prolinamide] | – | 34 | – | – |
| – | – | – | 13 | 1.179 | 0.704 | 0.213 | COC(=O)CCC[C@H]1NC(=O)N(CC(=O)N[C@H](C(=O)c2nnc(Cc3cccc(C)c3)o2)C(C)C)C1=O [CE2249, 4-(R)-(3-Carbomethoxy)propyl-2,5-imidazolidinedione-N-[1-(2-[5-(3-methylbenzyl)-1,3,4-oxadiazolyl]carbonyl)-2-(S)-methylpropyl]acetamide] | – | – | 22.4 | 42.4 |
| 3.53 | 3.05 | 1.89 | 0.39 | – | – | – | Cc1cccc(Cc2nnc(C(=O)[C@@H](NC(=O)Cn3c(-c4ccccc4)ncc(N)c3=O)C(C)C)o2)c1 [CE2260, 2-[5-Amino-6-oxo-2-phenyl-1,6-dihydro-1-pyrimidinyl]-N-[1-(2-[5-(3-methylbenzyl)-1,3,4-oxadiazolyl]carbonyl)-2-(S)-methylpropyl]acetamide] | 68.3 | 59.7 | – | – |
| – | – | – | 0.43 | 1.63 | 1.11 | 0.73 | Cc1cccc(Cc2nnc(C(=O)[C@@H](NC(=O)Cn3c(-c4ccc(F)cc4)ccc(N)c3=O)C(C)C)o2)c1 [CE2251, 2-[5-Amino-6-oxo-2-(4-fluorophenyl)-1,6-dihydro-1-pyridinyl]-N-[1-(2-[5-(3-methylbenzyl)-1,3,4-oxadiazolyl]carbonyl)-2-(S)-methylpropyl]acetamide] | – | – | 54.1 | 74.5 |
